Reference: US6432949B1, “Amide derivatives useful as inhibitors of the production of cytokines” (AstraZeneca AB, priority 1998, dated 2002)

Tests used:
p38α = target: T1, p38α (Homo sapiens, UniProt Q16539); assay: In vitro enzyme assay, p38α isoform; format: biochemical; settings: read-out: IC50 against p38α
T1 construct: c-myc (N); 6His (N); made in house; host or cells: E. coli (PET vectors)
Experimental: The ability of compounds of the invention to inhibit the enzyme p38 kinase was assessed. Activity of test compounds against each of the p38α and […] isoforms of the enzyme was determined.
Human recombinant MKK6 (GenBank Accesion Number G1209672) was isolated from Image clone 45578 (Genomics 1996, 33, 151) and utilised to produce protein in the form of a GST fusion protein in a pGEX vector using analogous procedures to those disclosed by J. Han et al., Journal of Biological Chemistry, 1996, 271, 2886-2891. p38α (GenBank Accession Number G529039) and p38β (GenBank Accession Number G1469305) were isolated by PCR amplification of human lymphoblastoid cDNA (GenBank Accession Number GM1416) and human foetal brain cDNA [synthesised from mRNA (Clontech, catalogue no. 6525-1) using a Gibco superscript cDNA synthesis kit] respectively using oligonucleotides designed for the 5′ and 3′ ends of the human p388α and p38β genes using analogous procedures to those described by J. Han et al., Biochimica et Biolphysica Acta, 1995, 1265, 224-227 and Y. Jiang et al., Journal of Biological Chemistry, 1996, 271, 17920-17926.
Both p38 protein isoforms were expressed in e coli in PET vectors. Human recombinant p38α and p38β isoforms were produced as 5′ c-myc, 6His tagged proteins. Both MKK6 and the p38 proteins were purified using standard protocols: the GST MKK6 was purified using a glutathione sepharose column and the p38 proteins were purified using nickel chelate columns.
The p38 enzymes were activated prior to use by incubation with MKK6 for 3 hours at 30° C. The unactivated coli-expressed MKK6 retained sufficient activity to fully activate both isoforns of p38. The activation incubate comprised p38α (10 μl of 10 mg/ml) or p38β (10 μl of 5 mg/ml) together with MKK6 (10 μl of 1 mg/ml), ‘Kinase buffer’ [100 μl; pH 7.4 buffer comprising Tris (50 mM), EGTA (0.1 mM), sodium orthovanadate (0.1 mM) and β-mercaptoethanol (0.1%)] and MgATP (30 μl of 50 mM Mg(OCOCH3)2 and 0.5 mM ATP). This produced enough activated p38 enzyme for 3 Microtiter plates.
Test compounds were solubilised in DMSO and 10 μl of a 1:10 diluted sample in ‘Kinase Buffer’ was added to a well in a Microtiter plate. For single dose testing, the compounds were tested at 10 μM. ‘Kinase Assay Mix’ [30 μl; comprising Myelin Basic Protein (Gibco BRL cat. no. 1322B-010; 1 ml of a 3.33 mg/ml solution in water), activated p38 enzyme (50 μl) and ‘Kinase Buffer’ (2 ml)] was then added followed by ‘Labelled ATP’ [10 μl; comprising 50 μM ATP, 0.1 μCi ^33P ATP (Amersham International cat. no. BF1000) and 50 mM Mg(OCOCH3)2]. The plates were incubated at room temperature with gentle agitation. Plates containing p38α were incubated for 90 min and plates containing p38β were incubated for 45 min. Incubation was stopped by the addition of 50 μl of 20% trichloroacetic acid (TCA). The precipitated protein was phosphorylated by p38 kinase and test compounds were assessed for their ability to inhibit this phosphorylation. The plates were filtered using a Canberra Packard Unifilter and washed with 2% TCA, dried overnight and counted on a Top Count scintillation counter.
Test compounds were tested initially at a single dose and active compounds were retested to allow IC50 values to be determined.

TNFα production [1] = assay: PBMC test: TNFα production by LPS-stimulated human peripheral blood mononuclear cells; format: cell-based
Experimental: The ability of compounds of this invention to inhibit TNFα production was assessed by using human peripheral blood mononuclear cells which synthesise and secrete TNFα when stimulated with lipopolysaccharide.
Peripheral blood mononuclear cells (PBMC) were isolated from heparinised (10 units/ml heparin) human blood by density centrifugation (Lymphoprep™; Nycomed). Mononuclear cells were resuspended in culture medium [RPMI 1640 medium (Gibco) supplemented with 50 units/ml penicillin, 50 μg/ml streptomycin, 2 mM glutamine and 1% heat-inactivated human AB serum (Sigma H-1 513)]. Compounds were solubilised in DMSO at a concentration of 50 mM, diluted 1:100 in culture medium and subsequently serial dilutions were made in culture medium containing 1% DMSO. PBMCs (2.4×10^5 cells in 160 μl culture medium) were incubated with 20 μl of varying concentrations of test compound (triplicate cultures) or 20 μl culture medium containing 1% DMSO (control wells) for 30 minutes at 37° C. in a humidified (5%CO2/95% air) incubator (Falcon 3072; 96 well flat-bottom tissue culture plates). 20 μl lipopolysaccharide [LPS E.Coli 0111:B4 (Sigma L4130), final concentration 10 μg/ml] solubilised in culture medium was added to appropriate wells. 20 μl culture medium was added to “medium alone” control wells. Six “LPS alone” and four “medium alone” controls were included on each 96 well plate. Varying concentrations of a known TNFα inhibitor were included in each test, i.e. an inhibitor of the PDE Type IV enzyme (for example see Semmler, J. Wachtel. H. and Endres, S., Int. J. Immunopharmac. (1993), 15(3), 409-413) or an inhibitor of proTNFα convertase (for example, see McGeehan, G. M. et al. Nature (1994) 370, 558-561). Plates were incubated for 7 hours at 37° C. (humidified incubator) after which 100 μl of the supernatant was removed from each well and stored at −70° C. (96 well round-bottom plates; Corning 25850). TNFα levels were determined in each sample using a human TNFα ELISA (see WO92/10190 and Current Protocols in Molecular Biology, vol 2 by Frederick M. Ausbel et al., John Wiley and Sons Inc.).
% inhibition=(LPS alone−medium alone)−(test concentration−medium alone)×100(LPS alone−medium alone)

TNFα production [2] = assay: Human Whole Blood (HWB) test: TNFα production by LPS-stimulated human whole blood; format: cell-based
Experimental: The ability of the compounds of this invention to inhibit TNFα production was also assessed in a human whole blood assay. Human whole blood secretes TNFα when stimulated with LPS. This property of blood forms the basis of an assay which is used as a secondary test for compounds which profile as active in the PBMC test.
Heparinised (10 units/ml) human blood was obtained from volunteers. 160 μl whole blood were added to 96 well round-bottom plates (Corning 25850). Compounds were solubilised and serially diluted in RPMI 1640 medium (Gibco) supplemented with 50 units/ml penicillin, 50 μg/ml streptomycin and 2 mM glutamine, as detailed above. 20 μl of each test concentration was added to appropriate wells (triplicate cultures). 20 μl of RPMI 1640 medium supplemented with antibiotics and glutamine was added to control wells. Plates were incubated for 30 minutes at 37° C. (humidified incubator), prior to addition of 2011 LPS (final concentration 10 μg/ml). RPMI 1640 medium was added to control wells. Six “LPS alone” and four “medium alone” controls were included on each plate. A known TNFα synthesis/secretion inhibitor was included in each test. Plates were incubated for 6 hours at 37° C. (humidified incubator). […] TNFα levels were measured by ELISA (see WO92/10190 and Current Protocols in Molecular Biology, vol 2 by Frederick M. Ausbel et al., John Wiley and Sons Inc.). […]

T1 sequence (Q16539 whole entry, canonical isoform): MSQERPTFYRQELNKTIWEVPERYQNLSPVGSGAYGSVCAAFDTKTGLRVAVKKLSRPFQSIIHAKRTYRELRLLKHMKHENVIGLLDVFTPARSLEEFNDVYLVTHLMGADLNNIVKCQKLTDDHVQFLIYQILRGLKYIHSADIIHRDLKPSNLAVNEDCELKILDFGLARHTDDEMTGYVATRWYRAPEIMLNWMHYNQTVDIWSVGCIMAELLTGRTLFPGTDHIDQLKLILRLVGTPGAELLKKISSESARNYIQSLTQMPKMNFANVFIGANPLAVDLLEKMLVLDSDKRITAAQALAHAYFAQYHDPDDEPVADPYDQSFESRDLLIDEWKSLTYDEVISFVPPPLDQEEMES

Compound	IC50 (p38α) [nM]	IC50 (TNFα production [1]; Homo sapiens, PBMC) [nM]	IC50 (TNFα production [2]) [nM]	IC50 (TNFα production [1]) [nM]
Cc1ccc(NC(=O)c2cccc(N(C)C)c2)cc1NC(=O)c1ccc(Cl)nc1 [Example 1, 6-chloro-N-[5-(3-dimethylaminobenzamido)-2-methylphenyl]pyridine-3-carboxamide]	~1000	~9000	–	–
Cc1ccc(NC(=O)c2cccc(N(C)C)c2)cc1NC(=O)c1ccc2ncsc2c1 [Example 8, Compound No. 2, N-[5-(3dimethylaminobenzamido)-2-methylphenyl]benzothiazole-6-carboxamide]	~100	~5000	–	–
N-[5-(5-isoxazolylcarbonylamino)2-methylphenyl]quinoline-6-carboxamide [Example 14]	~100	–	–	~3000

Stronger by IC50 (p38α), values ahead:

IC50 (p38α) [nM]	IC50 (TNFα production [1]; Homo sapiens, PBMC) [nM]	IC50 (TNFα production [2]) [nM]	Compound	IC50 (TNFα production [1]) [nM]
~50	~2000	–	N#Cc1ccc(C(=O)Nc2ccc(Cl)c(NC(=O)c3ccc4ncccc4c3)c2)cc1 [Example 10, N-[2-chloro-5-(4-cyanobenzamido)phenyl]quinoline6-carboxamide]	–
~50	–	~3000	Cc1ccc(NC(=O)c2ccnc(N3CCOCC3)c2)cc1NC(=O)c1ccc(NCCCN(C)C)nc1 [Example 22(14), 6-(3-dimethylaminopropylamino)-N-[2-methyl-5-(2-morpholinopyrid-4-ylcarbonylamino)phenyl]pyridine-3-carboxamide]	–
~50	~300	~2000	Cc1ccc(NC(=O)c2ccnc(N3CCOCC3)c2)cc1NC(=O)c1ccc(NCCC2CCCN2C)nc1 (stereo not shown) [Example 22(18), 6-[2-(1-methylpyrrolidin-2-yl)ethylamino]-N-[2-methyl-5(2-morpholinopyrid-4-ylcarbonylamino)phenyl]pyridine-3-carboxamide]	–
